Assay results from BindingDB's records for doi:10.1046/j.1471-4159.1994.63020456.x (Syntex Discovery Research, 1994).
pKi: −log10 of the molar value.

Biological target: 5-hydroxytryptamine receptor 7 (Cavia porcellus, UniProt P50407)
Sequence (P50407 whole entry): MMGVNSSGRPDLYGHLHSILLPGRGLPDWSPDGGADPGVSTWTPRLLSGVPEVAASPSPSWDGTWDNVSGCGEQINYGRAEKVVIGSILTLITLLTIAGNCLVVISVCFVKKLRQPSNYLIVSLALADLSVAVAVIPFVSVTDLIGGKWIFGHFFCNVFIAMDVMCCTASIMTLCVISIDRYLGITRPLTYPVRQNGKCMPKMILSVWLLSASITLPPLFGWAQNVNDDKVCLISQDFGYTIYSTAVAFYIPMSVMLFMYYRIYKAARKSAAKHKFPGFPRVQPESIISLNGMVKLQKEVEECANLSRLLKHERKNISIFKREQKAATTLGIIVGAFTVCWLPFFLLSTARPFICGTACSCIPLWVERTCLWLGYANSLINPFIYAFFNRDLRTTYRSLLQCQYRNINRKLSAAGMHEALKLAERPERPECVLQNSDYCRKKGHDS

SMILES: CCCN(CCC)C1CCc2cccc(O)c2C1 (configuration not stated)
- pKi: 7.30

SMILES: CC[C@@H](CO)NC(=O)[C@@H]1C=C2c3cccc4c3c(cn4C)C[C@H]2N(C)C1
- pKi: 7.40

SMILES: CN(C)CCc1c[nH]c2ccc(O)cc12 [3-[2-(dimethylamino)ethyl]indol-5-ol]
- pKi: 7.70

SMILES: O=C(CCCN1CCC2(CC1)C(=O)NCN2c1ccccc1)c1ccc(F)cc1 [8-[4-(4-fluorophenyl)-4-oxidanylidene-butyl]-1-phenyl-1,3,8-triazaspiro[4.5]decan-4-one]
- pKi: 7.00

SMILES: CNS(=O)(=O)Cc1ccc2[nH]cc(CCN(C)C)c2c1 [Sumax]
- pKi: 6.60

SMILES: NCCc1c[nH]c2ccc(O)cc12 [[3H]-5-HT]
- pKi: 9.00

SMILES: COc1ccc2[nH]cc(CCN)c2c1 [tryptamine, 5-Methoxy]
- pKi: 9.00
